Patent US9549914B2, “Treatment of human cytomegalovirus by modulating Wnt” (priority 2014, dated 2017)
Like-named read-outs stand apart in the source and are kept apart here.

How the values were obtained:
[1] = test system: GCV-resistant HCMV strain (UL97 mutation H520Q); assay: GCV-resistant HCMV strain, virus DNA yield by real-time PCR; assay type: cell-based, Human Cytomegalovirus (HCMV); settings: Human betaherpesvirus 5, read-out: EC50 against GCV-resistant HCMV strain
Method: HFFs cells were infected with a GCV-resistant HCMV and treated with monensin (0.01 μM-1 μM), nigericin (0.005 μM-0.5 μM), salinomycin (0.03 μM-10 μM) or GCV (1 μM-30 μM). Virus DNA yield was quantified by real-time PCR in supernatants of infected cells 96 hpi. Data represent mean values (±SD) of triplicate determinations from two independent experiments.
The quantitative CMV real-time PCR assay is based on detection of a 151 bp region from the highly conserved US17 gene (16). The limit of detection of the assay is 100 copies/mL (3.0 copies/reaction), and the measurable range is 2.4-8.0 log10 copies/mL. […] Quantification standards were prepared by cloning the US17 amplicon in the pCR®2.1-TOPO® plasmid vector (Invitrogen, Carlsbad, Calif.). […] Assay controls included quantified CMV AD 169 DNA (Advanced Biotechnologies Inc.) and quantified Towne CMV at 3.0 and 5.0 log10 copies/mL. Quantitative CMV data were expressed as viral DNA copies per milliliter. The real-time PCR was used for quantification of HCMV replication in cell lysates at 48 hpi, virus DNA yield in supernatants at 96 hpi and for a reversibility assay (14, 16).

[2] = in vitro; settings: human
Method: (§3) Cell viability was determined using a colorimetric MTT cell proliferation assay following manufacturer's instructions (Sigma-Aldrich, St. Louis, Mo.). HFFs were treated with varying concentrations of monensin, nigericin, and salinomycin and incubated at 37° C. for 3 days. After the addition of 20 μl/well of MTT (3-(4,5-Dimethyl-2-thiazolyl)-2,5-diphenyl-2H-tetrazolim bromide) (5 mg/ml in PBS), and shaking at 150 rpm for 5 minutes the plates were incubated at 37° C. for 3 hours. Conversion of yellow solution into dark blue formazan by mitochondrial dehydrogenases of living cells was quantified by measuring absorbance at 570 nm. Viable cells in culture medium containing vehicle alone (0.1% DMSO) were referred to as 100% cell viability. For each cell type used for virus infection and drug treatment, the MTT assay was performed at the same time points as the antiviral assay.

[3] = in vitro; settings: human; remark: listed apart in the source
Method: as §3

[4] = test system: pp28-luciferase HCMV Towne strain; assay: microbe, parasite or virus in culture; assay type: cell-based, Human Cytomegalovirus (HCMV); settings: for SI (selectivity index): HCMV in HFFs, mean ± SD; for EC50: Human betaherpesvirus 5, read-out: EC50 (μM), anti-HCMV activity
Method: The pp28-luciferase HCMV Towne strain was constructed as previously described (14). This virus expresses luciferase under the control of the late CMV gene promoter, pp28. Luciferase expression is strongly activated 48-72 hours post infection (hpi). […] A GCV-resistant HCMV strain was obtained from a patient with CMV disease. […] Human herpes virus strains were: luciferase HSV1-KOS/Dlux/oriS (15) and clinical isolates of HSV1 and HSV2. All clinical isolates were provided by the clinical virology laboratory with no identifiers that can link to a specific subject. The Johns Hopkins Office of Human Subject Research Institutional Review Board determined that this research qualified for an exemption.
Human Foreskin Fibroblasts (HFFs) passage 12-16 (ATCC, CRL-2088™) were grown in Dulbecco's Modified Eagle Medium (DMEM) containing 10% fetal bovine serum (FBS) (Gibco, Carlsbad, Calif.) in a 5% CO2 incubator at 37° C. and used for infection with HCMV or HSV at multiplicity of infection of 1 PFU/cell (MOI=1) unless otherwise specified. Following 90 minute adsorption (60 min for HSV), media was removed and cells were washed with PBS. DMEM with 4% FBS containing compounds was added to each well. For HCMV, infected, treated HFFs were collected at 72 hpi and lysates were assayed for luciferase activity using a luciferase assay kit (Promega, Madison, Wis.) on GloMax®-Multi+ Detection System (Promega) according to manufacturer's instructions.

[5] = test system: HCMV; assay: Reversibility of HCMV inhibition, real-time PCR in supernatants; assay type: cell-based, Human Cytomegalovirus (HCMV); settings: treated 1, 2 or 3 days, then fresh media; HCMV DNA in supernatants at day 6 post infection
From the text: FIG. 4: Effects of monensin, nigericin, salinomycin and GCV on replication characteristics. A. Reversibility of HCMV replication: Compounds were present in HCMV-infected HFFs at the indicated intervals in days. Virus DNA was quantified by real-time PCR in supernatants at 6 days post infection. Data represent mean values (±SD) of triplicate determinations from two independent experiments. B. Inhibition of DNA replication, pp28 expression and virus DNA yield: DNA replication was quantified by real-time PCR in cells collected 48 hpi. Pp28-luciferase activity was measured in cell lysates collected at 72 hpi. Virus DNA yield was measured by real-time PCR in supernatants of infected cells collected at 96 hpi. The concentration of compounds was: 0.1 μM for monensin and nigericin, 1 μM for salinomycin and 10 μM for GCV. Data represent mean values (±SD) of triplicate determinations from two independent experiments.
The quantitative CMV real-time PCR assay is based on detection of a 151 bp region from the highly conserved US17 gene (16). The limit of detection of the assay is 100 copies/mL (3.0 copies/reaction), and the measurable range is 2.4-8.0 log10 copies/mL. The PCR was performed using a total reaction volume of 50 μL, including TaqMan 2× Universal PCR Master Mix (Applied Biosystems, Foster City, Calif.), primers (300 nM final concentration), FAM-labeled probe (200 nM final concentration), dH2O, and template (10 μl). Amplification was performed on a 7500 Real-Time PCR System (Applied Biosystems, Foster City, Calif.). PCR conditions were: 50° C. for 2 min, 95° C. for 10 min, 40 cycles of 95° C. for 15 s and 60° C. for 60 s. Quantification standards were prepared by cloning the US17 amplicon in the pCR®2.1-TOPO® plasmid vector (Invitrogen, Carlsbad, Calif.). Serial 10-fold dilutions of plasmid from 7.0 to 1.0 log10 copies/reaction were included with each assay and used to establish a standard curve. The slope and R^2 of the standard curve were −3.3±0.1 and >0.990, respectively. Assay controls included quantified CMV AD 169 DNA (Advanced Biotechnologies Inc.) and quantified Towne CMV at 3.0 and 5.0 log10 copies/mL. Quantitative CMV data were expressed as viral DNA copies per milliliter. The real-time PCR was used for quantification of HCMV replication in cell lysates at 48 hpi, virus DNA yield in supernatants at 96 hpi and for a reversibility assay (14, 16).
To test whether HCMV inhibition by monensin, nigericin and salinomycin was reversible, infected HFFs were treated for 1, 2, or 3 days followed by removal of the media containing the compounds, and adding fresh media until 6 days post infection. HCMV DNA was quantified in supernatants of infected cells at day 6 post infection by real-time PCR.

[6] = in vitro; settings: human; remark: listed apart in the source
Method: as §3

[7] = test system: HSV2 clinical isolates; assay: HSV2 plaque assay in Vero cells; assay type: cell-based; settings: read-out: HSV2 EC50 (μM) Plaque Number (Vero)
[8] = test system: HCMV; assay: HCMV yield reduction (infectious virus released into medium, plaques); assay type: cell-based, Human Cytomegalovirus (HCMV)
[9] = test system: luciferase HSV1-KOS/Dlux/oriS; assay: HSV1-KOS/Dlux/oriS yield reduction assay in HFFs; assay type: cell-based; settings: Human alphaherpesvirus 1, 16 h, read-out: HSV1 EC50 (μM) Yield Reduction (HFFs)
[10] = test system: Wnt/β-catenin signaling proteins; assay: Western blot of Wnt/β-catenin signaling proteins in HSV1-infected HFFs; assay type: cell-based, Human; settings: 48 hpi with HSV1-KOS (Dlux/OriS), concentrations resulting in full HCMV inhibition
Method: FIG. 7: Effect of monensin, nigericin and salinomycin on expression of Wnt/β-catenin signaling proteins in non-infected and HSV1-infected HFFs. FIG. 7A: Expression of Wnt5a/b, Axin1, β-catenin, and actin (control) in non-infected (Mock), and HSV1-infected HFFs (MOI=0.1) treated with monensin (0.1 μM), nigericin (0.1 μM), salinomycin (1 μM) and GCV (10 μM) was determined after 48 h. Representative data from three independent experiments is shown. FIG. 7B: Expression of Wnt5a/b, Axin1, β-catenin, and actin (control) in non-infected (Mock), and HSV1-infected HFFs (MOI=0.1) treated with monensin (0.2 μM), nigericin (0.2 μM) and salinomycin (2 μM) and GCV (10 μM) was determined after 48 h. Representative data from three independent experiments is shown.
(§1) Cell lysates were quantified for protein content using bicinchoninic acid (BCA) protein assay kit (Pierce Chemical, Rockford, Ill.). Equivalent amount of proteins were mixed with an equal volume of 2× sample buffer (125 mM Tris-HCL, pH 6.8, 4% SDS, 20% glycerol and 5% β-mercaptoethanol) and boiled at 100° C. for 10 min (except for Wnt and pWnt detection for which samples were not boiled). Denatured proteins were resolved in Tris-glycine polyacrylamide gels (10-12%) and transferred to polyvinylidine difluoride (PVDF) membranes (Bio-Rad Laboratories, Hercules, Calif.) by electroblotting. Membranes were incubated in blocking solution [5% non-fat dry milk and 0.1% Tween-20 in PBS (PBST)] for 1 hr, washed three times with PBST, and incubated with appropriately diluted primary antibodies at 4° C. overnight. Membranes were washed with PBST and incubated with horseradish peroxidase-conjugated secondary antibodies in PBST for 1 hr at room temperature. Following washing with PBST, protein bands were visualized by chemiluminescence using SuperSignal West Dura and Pico reagents (Pierce Chemical, Rockford, Ill.). The following antibodies were used for detection of CMV proteins: mouse anti-IE1 and IE2, (MAb810); mouse anti-beta-actin antibody (Millipore, Billerica, Mass.); mouse anti-UL44 (Santa Cruz biotechnology Santa Cruz, Calif.); mouse anti-pp65 (Vector laboratories, Burlingame, Calif.); horseradish peroxidase (HRP)-conjugated anti-rabbit IgG (Cell Signaling Technology, Beverly, Mass.); and HRP-conjugated anti-mouse IgG, (GE Healthcare, Waukesha, Wis.). The following antibodies were used for detection of proteins in the Wnt pathway: anti-Wnt5a/b, Wnt, phospho-Wnt, Dvl2, Dvl3 and axin1 (Cell Signaling), β-catenin (E-5) (Santa Cruz biotechnology).

[11] = test system: HSV1 clinical isolates; assay: HSV1 plaque assay in Vero cells; assay type: cell-based; settings: read-out: HSV1 EC50 (μM) Plaque Number (Vero)
[12] = test system: Wnt/β-catenin signaling proteins; assay: Western blot of Wnt-signaling proteins in non-infected and HCMV-infected HFFs; assay type: cell-based, Human; settings: 100 nM
Method: (§2) FIG. 5: Effect of Nigericin and GCV on expression of HCMV and Wnt/β-catenin signaling proteins. A. Expression of HCMV proteins in infected HFFs treated with nigericin (100 nM) and GCV (10 μM). Compounds were added after virus adsorption and cell lysates were collected for western blot at 24, 48 and 72 hpi. Control-no treatment. B. Expression of Wnt-signaling proteins was determined in non-infected (Mock), and HCMV-infected HFFs treated with nigericin (100 nM) and GCV (10 μM) at indicated time points. Representative data from three independent experiments are shown.
as §1

[13] = test system: HCMV proteins (IE1, IE2, UL44, pp65); assay: Western blot of HCMV proteins in infected HFFs; assay type: cell-based, Human Cytomegalovirus (HCMV)
Method: as §2, §1

[14] = Human alphaherpesvirus 2, 48 h, Vero cells, 200 PFU/well, plaques counted after 2 days
[15] = infected HFFs treated at 0.1 μM
[16] = Human alphaherpesvirus 1, 48 h, Vero cells, 200 PFU/well, plaques counted after 2 days
[17] = non-infected and HCMV-infected HFFs, all time points (24, 48, 72 hpi)

| Compound | CC50 at 3 days [2] [nM] | SI (selectivity index) [4] | EC50 [4] [µM] | reversibility of HCMV inhibition [5] | EC50 [7, 14] [µM] | infectious virus released into the medium (yield reduction), plaques [8, 15] | EC50 [9] [µM] | expression of Wnt 5a/b in HSV1-infected HFFs [10] | expression of axin 1 in HSV1-infected HFFs [10] | expression of β-catenin in HSV1-infected HFFs [10] | EC50 [11, 16] [µM] | further results |
| --- | --- | --- | --- | --- | --- | --- | --- | --- | --- | --- | --- | --- |
| Nc1nc(O)c2ncn(COC(CO)CO)c2n1 [GCV, ganciclovir] | 247000 ± 33400 | 96 ± 14 | 2.7 ± 0.1 | fully reversible | – | – | – | – | – | – | – | EC50 [1]: 7600 nM; CC50 [3]: > 100000 nM; CC50 [6]: > 100000 nM |
| CC[C@@]1([C@@H]2O[C@@H]([C@H]3O[C@@](O)(CO)[C@H](C)C[C@@H]3C)C[C@@H]2C)CC[C@H]([C@]2(C)CC[C@]3(C[C@H](O)[C@@H](C)[C@@H]([C@@H](C)[C@@H](OC)[C@H](C)C(=O)O)O3)O2)O1 [Monensin] | 3370 ± 520 | 138 ± 14 | 0.02 | weak irreversible inhibition | 0.34 ± 0.04 | complete absence of plaques | 0.08 | inhibition | did not reduce | did not reduce | 1.6 ± 0.14 | – |
| CO[C@@H]1C[C@@H](C[C@H]2CC[C@H](C)[C@H]([C@@H](C)C(=O)O)O2)O[C@]2(O[C@](C)([C@H]3CC[C@@](C)([C@@H]4O[C@@H]([C@H]5O[C@@](O)(CO)[C@H](C)C[C@@H]5C)C[C@@H]4C)O3)C[C@H]2C)[C@@H]1C [Nigericin, nigericin] | 3350 ± 770 | 139 ± 23 | 0.02 | weak irreversible inhibition | 0.16 ± 0.05 | complete absence of plaques | 0.08 | inhibition | did not reduce | did not reduce | 0.63 | β-catenin levels ([12]; effect increased from 24 to 48 and 72 hpi): significant decrease; expression of Wnt [12, 17]: decreased expression; expression of Wnt 5a/b [12, 17]: decreased expression; expression of axin 1 [12, 17]: decreased expression; expression of pWnt [12, 17]: decreased expression; expression of the late HCMV gene pp65 ([13]; 100 nM): significant inhibition; IE1 expression ([13]; 100 nM, 24, 48 and 72 hpi): no obvious inhibition; IE2 expression ([13]; 100 nM, 24, 48 and 72 hpi): major inhibition; UL44 expression ([13]; 100 nM, 24, 48 and 72 hpi): major inhibition |
| CC[C@@H](C(=O)[C@@H](C)[C@@H](O)[C@H](C)[C@@H]1O[C@@H]([C@@H](CC)C(=O)O)CC[C@@H]1C)[C@H]1O[C@]2(C=C[C@@H](O)[C@]3(CC[C@@](C)([C@H]4CC[C@](O)(CC)[C@H](C)O4)O3)O2)[C@H](C)C[C@@H]1C [Salinomycin, salinomycin] | 28400 ± 5900 | 143 ± 18 | 0.2 ± 0.01 | fully reversible | – | – | 0.6 ± 0.1 | inhibition | did not reduce | did not reduce | – | EC50 ([7]; Human alphaherpesvirus 2, Vero, 48 h): 0.07 ± 0.03 µM; infectious virus released into the medium (yield reduction), plaques ([8]; infected HFFs treated at 1 μM): complete absence of plaques; EC50 ([11]; Human alphaherpesvirus 1, Vero, 48 h): 0.58 ± 0.07 µM |
